{
  "source": "patent US5760092A",
  "about": "“Allocolchinones and uses thereof” (Brandeis University, priority 1996, dated 1998)",
  "key": {"[1]": {"system": "RXF-393 renal cancer cells", "test": "cells", "details": "Homo sapiens"}, "[2]": {"system": "HOP-92 non-small cell lung cancer cells", "test": "cells", "details": "Homo sapiens"}},
  "data": [
    {"smiles": "COc1cc2c(c(OC)c1OC)-c1ccc(C(C)=O)cc1C(NC(C)=O)CC2", "note": "(centres unmarked)", "values": [
      {"measurement": "CC50", "setting": "[1]; RXF 393, read-out: LC50", "result": "> 1000", "unit": "nM"},
      {"measurement": "activity at 1 µM", "setting": "[1]; RXF 393, read-out: Percent Growth, log10 conc -6.0", "result": 61, "unit": "%"},
      {"measurement": "activity at 0.1 µM", "setting": "[1]; RXF 393, read-out: Percent Growth, log10 conc -7.0", "result": 55, "unit": "%"},
      {"measurement": "activity at 0.01 µM", "setting": "[1]; RXF 393, read-out: Percent Growth, log10 conc -8.0", "result": 35, "unit": "%"},
      {"measurement": "activity at 0.001 µM", "setting": "[1]; RXF 393, read-out: Percent Growth, log10 conc -9.0", "result": 42, "unit": "%"},
      {"measurement": "activity at 0.0001 µM", "setting": "[1]; RXF 393, read-out: Percent Growth, log10 conc -10.0", "result": 101, "unit": "%"},
      {"measurement": "GI50", "setting": "[2]; HOP-92", "result": 0.618, "unit": "nM"},
      {"measurement": "activity at 100 µM", "setting": "[2]; HOP-92, read-out: Percent Growth, log10 conc -4.0", "result": 57, "unit": "%"},
      {"measurement": "activity at 10 µM", "setting": "[2]; HOP-92, read-out: Percent Growth, log10 conc -5.0", "result": 53, "unit": "%"},
      {"measurement": "activity at 0.001 µM", "setting": "[2]; HOP-92, read-out: Percent Growth, log10 conc -9.0", "result": 36, "unit": "%"},
      {"measurement": "activity at 0.0001 µM", "setting": "[2]; HOP-92, read-out: Percent Growth, log10 conc -10.0", "result": 94, "unit": "%"}
    ]}
  ]
}
